Results taken from ChEMBL document CHEMBL4387733, “Design, synthesis and biological evaluation of indane derived GPR40 agoPAMs” (Bioorg Med Chem Lett, 2019).
≈ marks a conversion by molar mass, not a printed value. Calls of active or inactive are those of the source. The rule behind the calls is not given here.

Experiments:
[1] = Drug level in rat hepatocytes treated with (2S,3R)-3-cyclopropyl-3-(3-((R)-5-(2-fluoro-5-methoxyphenyl)-2,3-dihydro-1H-inden-1-yloxy)phenyl)-2-methylpropanoic acid at 5 uM measured after 2 hrs; assay type: ADME, cell-based, Hepatocyte
[2] = Half-life in Wistar Han rat at 1 mg/kg, iv or 2 mg/kg, po; assay type: ADME, organism-based; conditions: in vivo
[3] = Oral bioavailability in Wistar Han rat at 2 mg/kg; assay type: ADME, organism-based; conditions: in vivo
[4] = Drug level in rat plasma at 100 mg/kg; assay type: ADME, organism-based; conditions: in vivo
[5] = molecular target: Prostaglandin E2 receptor EP3 subtype (Homo sapiens) (UniProt P43115); assay: Inhibition of human prostanoid EP3 receptor at 10 uM relative to control
[6] = Protein binding in rat plasma assessed as unbound fraction at 10 mg/kg, po; assay type: ADME, organism-based; conditions: in vivo
[7] = Total drug level in rat plasma at 30 mg/kg, po; assay type: ADME, organism-based; conditions: in vivo
[8] = Drug metabolism in human hepatocytes assessed as (2S,3S,4S,5R)-6-((2S,3R)-3-cyclopropyl-3-(3-((R)-5-(2-fluoro-5-methoxyphenyl)-2,3-dihydro-1H-inden-1-yloxy)phenyl)-2-methylpropanoyloxy)-3,4,5-trihydroxytetrahydro-2H-pyran-2-carboxylic acid formation at 5 uM measured after 2 hrs; assay type: ADME, cell-based, Hepatocyte
[9] = Protein binding in rat plasma assessed as unbound fraction at 3 mg/kg, po; assay type: ADME, organism-based; conditions: in vivo
[10] = Toxicity in rat assessed as change in clinical pathology at 600 mg/kg administered for 4 days; assay type: organism-based; conditions: in vivo, 96 h
[11] = molecular target: T1, Free fatty acid receptor 1 (Homo sapiens, UniProt O14842); assay: Positive allosteric modulation of recombinant human GPR40 expressed in HEK293 cells assessed as increase in [3H]-myo-inositol phosphate accumulation measured after 60 mins in presence of 100% human serum by microbeta counting method; assay type: functional, cell-based
[12] = molecular target: Prostacyclin receptor (Homo sapiens) (UniProt P43119); assay: Inhibition of human prostanoid IP receptor at 10 uM relative to control
[13] = Drug level in Wistar Han rat assessed as unbound fraction at 1 mg/kg, iv or 2 mg/kg, po; assay type: ADME, organism-based; conditions: in vivo
[14] = Unbound drug level in Wistar Han rat plasma at 1 mg/kg, iv or 2 mg/kg, po measured at 3 hrs; assay type: ADME, organism-based; conditions: in vivo
Rattus norvegicus [15] = assay: Hypoglycemic activity in Sprague-Dawley rat assessed as reduction in blood glucose AUC at 3 mg/kg, po pretreated for 1 hr followed by glucose challenge by OGTT relative to control; assay type: functional; design: scale not given: the % may be the effect or the level left
[16] = Total drug level in rat plasma at 0.3 mg/kg, po; assay type: ADME, organism-based; conditions: in vivo
[17] = Drug level in rat plasma at 650 mg/kg; assay type: ADME, organism-based; conditions: in vivo
[18] = Protein binding in human plasma assessed as unbound fraction level; assay type: ADME, cell-free
[19] = Drug metabolism in rat hepatocytes assessed as (2S,3R)-3-cyclopropyl-3-(3-((R)-5-(2-fluoro-5-(sulfooxy)phenyl)-2,3-dihydro-1H-inden-1-yloxy)phenyl)-2-methylpropanoic acid formation at 5 uM measured after 2 hrs; assay type: ADME, cell-based, Hepatocyte
[20] = Dose normalized AUC in Wistar Han rat at 2 mg/kg, po; assay type: ADME, organism-based; conditions: in vivo
Rattus norvegicus [21] = assay: Hypoglycemic activity in Sprague-Dawley rat assessed as reduction in blood glucose AUC at 0.3 mg/kg, po pretreated for 1 hr followed by glucose challenge by OGTT relative to control; assay type: functional; design: scale not given: the % may be the effect or the level left
[22] = molecular target: Sodium-dependent dopamine transporter (Homo sapiens) (UniProt Q01959); assay: Inhibition of human sodium dependent dopamine transporter at 10 uM relative to control
[23] = molecular target: T1, Free fatty acid receptor 1; assay: Positive allosteric modulation of recombinant human GPR40 expressed in HEK293 cells assessed as increase in [3H]-myo-inositol phosphate accumulation measured after 60 mins in absence of human serum by microbeta counting method; assay type: functional, cell-based
[24] = Toxicity in rat assessed as change in body weight at 600 mg/kg administered for 4 days; assay type: organism-based; conditions: in vivo, 96 h
[25] = Total drug level in rat plasma at 1 mg/kg, po; assay type: ADME, organism-based; conditions: in vivo
[26] = Toxicity in rat at 100 mg/kg administered for 4 days; assay type: organism-based; conditions: in vivo, 96 h
[27] = Total drug level in rat plasma at 3 mg/kg, po; assay type: ADME, organism-based; conditions: in vivo
[28] = Solubility of the compound in FASSIF; assay type: physicochemical
[29] = Ratio of compound effect for protein binding in rat plasma assessed as unbound fraction at 30 mg/kg, po to fEC50 for positive allosteric modulation of recombinant human GPR40 expressed in HEK293 cells in presence of 100% human serum
[30] = Volume of distribution in Wistar Han rat at 1 mg/kg, iv or 2 mg/kg, po; assay type: ADME, organism-based; conditions: in vivo
Rattus norvegicus [31] = assay: Hypoglycemic activity in Sprague-Dawley rat assessed as reduction in blood glucose AUC at 10 mg/kg, po pretreated for 1 hr followed by glucose challenge by OGTT relative to control; assay type: functional; design: scale not given: the % may be the effect or the level left
[32] = molecular target: Histamine H1 receptor (Homo sapiens) (UniProt P35367); assay: Inhibition of human histamine H1 receptor at 10 uM relative to control
[33] = Ratio of compound effect for protein binding in rat plasma assessed as unbound fraction at 10 mg/kg, po to fEC50 for positive allosteric modulation of recombinant human GPR40 expressed in HEK293 cells in presence of 100% human serum
[34] = molecular target: Beta-3 adrenergic receptor (Homo sapiens) (UniProt P13945); assay: Inhibition of human beta3 adrenergic receptor at 10 uM relative to control
[35] = molecular target: Cysteinyl leukotriene receptor 2 (Homo sapiens) (UniProt Q9NS75); assay: Displacement of [3H]LTD4 from human full-length recombinant cysteinyl leukotriene type-2 receptor expressed in HEK293 cells at 10 uM measured after 60 mins by scintillation counting method relative to control; assay type: cell-based
[36] = molecular target: Peroxisome proliferator-activated receptor gamma (Homo sapiens) (UniProt P37231); assay: Inhibition of human PPARG at 10 uM relative to control
Mus musculus = species: Mus musculus; assay: Glucose lowering effect in mouse assessed as increase in GLP-1 level; assay type: functional, organism-based
[37] = Cmax in Wistar Han rat at 1 mg/kg, iv or 2 mg/kg, po; assay type: ADME, organism-based; conditions: in vivo
Rattus norvegicus [38] = assay: Hypoglycemic activity in Sprague-Dawley rat assessed as reduction in blood glucose AUC at 30 mg/kg, po pretreated for 1 hr followed by glucose challenge by OGTT relative to control; assay type: functional; design: scale not given: the % may be the effect or the level left
Rattus norvegicus [39] = assay: Hypoglycemic activity in Sprague-Dawley rat assessed as reduction in blood glucose AUC at 1 mg/kg, po pretreated for 1 hr followed by glucose challenge by OGTT relative to control; assay type: functional; design: scale not given: the % may be the effect or the level left
[40] = Protein binding in rat plasma assessed as unbound fraction at 0.3 mg/kg, po; assay type: ADME, organism-based; conditions: in vivo
[41] = Total drug level in Wistar Han rat plasma at 1 mg/kg, iv or 2 mg/kg, po measured at 3 hrs; assay type: ADME, organism-based
[42] = Protein binding in rat plasma assessed as unbound fraction at 1 mg/kg, po; assay type: ADME, organism-based; conditions: in vivo
[43] = molecular target: T1, Free fatty acid receptor 1; assay: Positive allosteric modulation of recombinant human GPR40 expressed in HEK293 cells assessed as increase in [3H]-myo-inositol phosphate accumulation measured after 60 mins in presence of 100% human serum by microbeta counting method relative to control; assay type: functional, cell-based
[44] = Protein binding in rat plasma assessed as unbound fraction at 30 mg/kg, po; assay type: ADME, organism-based; conditions: in vivo
[45] = Total drug level in rat plasma at 10 mg/kg, po; assay type: ADME, organism-based; conditions: in vivo
[46] = molecular target: Prostaglandin E2 receptor EP1 subtype (Homo sapiens) (UniProt P34995); assay: Inhibition of human prostanoid EP1 receptor at 10 uM relative to control
[47] = molecular target: Acetylcholinesterase (Homo sapiens) (UniProt P22303); assay: Inhibition of human recombinant full length acetylcholine esterase expressed in HEK293 cells at 10 uM using acetylcholine as substrate preincubated for 15 mins followed by substrate addition measured after 20 mins by spectrophotometric analysis
[48] = Clearance in Wistar Han rat at 1 mg/kg, iv or 2 mg/kg, po; assay type: ADME, organism-based; conditions: in vivo
[49] = molecular target: Sodium-dependent noradrenaline transporter (Homo sapiens) (UniProt P23975); assay: Inhibition of human sodium dependent noradrenaline transporter at 10 uM relative to control
Rattus norvegicus [50] = assay: Hypoglycemic activity in Sprague-Dawley rat assessed as reduction in blood glucose AUC at 3 mg/kg, ip measured after 3 hrs by IPGTT relative to control; assay type: functional
[51] = molecular target: T1, Free fatty acid receptor 1; assay: Positive allosteric modulation of recombinant human GPR40 expressed in HEK293 cells assessed as increase in [3H]-myo-inositol phosphate accumulation measured after 60 mins in absence of human serum by microbeta counting method relative to control; assay type: functional, cell-based; design: concentration or dose not given beside the values
[52] = Drug level in human hepatocytes treated with (2S,3R)-3-cyclopropyl-3-(3-((R)-5-(2-fluoro-5-methoxyphenyl)-2,3-dihydro-1H-inden-1-yloxy)phenyl)-2-methylpropanoic acid at 5 uM measured after 2 hrs; assay type: ADME, cell-based, Hepatocyte
[53] = Stability of the compound in pH 7.4 potassium phosphate buffer at 10 uM measured after 5 hrs; assay type: physicochemical; conditions: pH 7.4, 5 h

T1 sequence (O14842 whole entry): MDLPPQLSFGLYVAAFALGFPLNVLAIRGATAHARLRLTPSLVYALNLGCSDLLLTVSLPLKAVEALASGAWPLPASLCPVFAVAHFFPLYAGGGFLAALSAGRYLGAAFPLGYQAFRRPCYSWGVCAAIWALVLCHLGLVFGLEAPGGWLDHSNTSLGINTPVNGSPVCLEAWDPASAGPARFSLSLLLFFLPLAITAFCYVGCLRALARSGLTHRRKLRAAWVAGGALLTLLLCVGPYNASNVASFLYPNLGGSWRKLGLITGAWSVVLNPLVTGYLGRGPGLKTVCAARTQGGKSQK
Histamine H1 receptor (Homo sapiens), sequence (P35367 whole entry): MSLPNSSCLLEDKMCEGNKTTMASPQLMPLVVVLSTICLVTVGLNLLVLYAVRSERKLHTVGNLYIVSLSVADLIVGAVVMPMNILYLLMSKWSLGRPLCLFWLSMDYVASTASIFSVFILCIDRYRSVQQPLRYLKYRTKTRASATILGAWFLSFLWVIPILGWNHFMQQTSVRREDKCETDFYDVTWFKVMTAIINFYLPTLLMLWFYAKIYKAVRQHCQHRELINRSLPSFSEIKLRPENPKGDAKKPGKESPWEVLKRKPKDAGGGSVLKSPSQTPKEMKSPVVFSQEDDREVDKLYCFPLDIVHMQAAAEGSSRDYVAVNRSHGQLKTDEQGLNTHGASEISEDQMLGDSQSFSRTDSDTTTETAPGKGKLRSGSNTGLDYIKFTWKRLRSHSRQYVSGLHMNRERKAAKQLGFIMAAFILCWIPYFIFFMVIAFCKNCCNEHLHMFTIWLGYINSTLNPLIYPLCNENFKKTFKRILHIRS
Sodium-dependent noradrenaline transporter (Homo sapiens), sequence (P23975 whole entry): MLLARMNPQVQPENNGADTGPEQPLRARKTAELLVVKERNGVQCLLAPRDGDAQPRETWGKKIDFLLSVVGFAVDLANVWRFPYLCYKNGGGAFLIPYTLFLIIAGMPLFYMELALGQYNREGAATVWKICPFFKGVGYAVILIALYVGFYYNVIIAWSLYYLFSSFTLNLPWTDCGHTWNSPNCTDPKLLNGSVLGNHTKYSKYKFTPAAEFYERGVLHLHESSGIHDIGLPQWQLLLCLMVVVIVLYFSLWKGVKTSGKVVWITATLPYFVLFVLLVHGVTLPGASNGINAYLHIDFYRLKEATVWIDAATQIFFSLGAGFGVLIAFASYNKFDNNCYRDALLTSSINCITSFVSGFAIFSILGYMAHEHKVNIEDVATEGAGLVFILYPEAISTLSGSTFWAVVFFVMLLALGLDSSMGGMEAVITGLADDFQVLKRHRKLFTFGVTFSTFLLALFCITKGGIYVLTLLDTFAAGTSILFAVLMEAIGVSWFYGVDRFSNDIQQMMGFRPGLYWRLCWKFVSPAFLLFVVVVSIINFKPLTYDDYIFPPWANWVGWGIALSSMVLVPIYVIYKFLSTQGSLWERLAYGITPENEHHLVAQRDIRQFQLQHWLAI
Beta-3 adrenergic receptor (Homo sapiens), sequence (P13945 whole entry, looked up): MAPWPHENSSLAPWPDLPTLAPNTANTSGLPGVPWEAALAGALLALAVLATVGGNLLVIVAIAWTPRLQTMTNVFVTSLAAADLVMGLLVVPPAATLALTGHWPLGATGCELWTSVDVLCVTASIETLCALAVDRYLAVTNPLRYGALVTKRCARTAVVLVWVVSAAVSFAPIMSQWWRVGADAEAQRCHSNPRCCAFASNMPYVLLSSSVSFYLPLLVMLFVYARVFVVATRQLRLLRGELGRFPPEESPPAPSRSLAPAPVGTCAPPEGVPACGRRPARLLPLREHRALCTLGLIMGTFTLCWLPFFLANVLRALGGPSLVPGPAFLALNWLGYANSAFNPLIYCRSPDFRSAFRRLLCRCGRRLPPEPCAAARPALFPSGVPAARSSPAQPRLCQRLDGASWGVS
Prostaglandin E2 receptor EP3 subtype (Homo sapiens), sequence (P43115 whole entry): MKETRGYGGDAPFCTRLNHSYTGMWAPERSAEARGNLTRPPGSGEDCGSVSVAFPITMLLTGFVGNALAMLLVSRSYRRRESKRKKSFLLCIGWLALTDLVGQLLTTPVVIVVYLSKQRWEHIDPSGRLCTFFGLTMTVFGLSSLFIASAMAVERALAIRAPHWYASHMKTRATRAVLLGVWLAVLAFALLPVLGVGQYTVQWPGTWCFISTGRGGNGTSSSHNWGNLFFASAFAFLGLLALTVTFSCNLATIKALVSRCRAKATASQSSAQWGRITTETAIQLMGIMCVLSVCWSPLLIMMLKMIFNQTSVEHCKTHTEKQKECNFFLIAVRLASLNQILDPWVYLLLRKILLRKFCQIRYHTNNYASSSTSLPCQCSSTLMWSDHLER
Prostaglandin E2 receptor EP1 subtype (Homo sapiens), sequence (P34995 whole entry): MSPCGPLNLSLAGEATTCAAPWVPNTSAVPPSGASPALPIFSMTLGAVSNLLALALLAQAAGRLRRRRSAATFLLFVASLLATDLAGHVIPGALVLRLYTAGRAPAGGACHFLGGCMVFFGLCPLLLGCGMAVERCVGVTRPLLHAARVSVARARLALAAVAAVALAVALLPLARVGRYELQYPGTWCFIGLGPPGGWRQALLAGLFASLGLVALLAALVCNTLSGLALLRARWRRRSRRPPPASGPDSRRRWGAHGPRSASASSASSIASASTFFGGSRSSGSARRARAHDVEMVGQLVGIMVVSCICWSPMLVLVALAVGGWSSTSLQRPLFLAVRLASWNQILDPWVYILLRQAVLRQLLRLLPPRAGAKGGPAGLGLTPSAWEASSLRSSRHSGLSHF
Sodium-dependent dopamine transporter (Homo sapiens), sequence (Q01959 whole entry): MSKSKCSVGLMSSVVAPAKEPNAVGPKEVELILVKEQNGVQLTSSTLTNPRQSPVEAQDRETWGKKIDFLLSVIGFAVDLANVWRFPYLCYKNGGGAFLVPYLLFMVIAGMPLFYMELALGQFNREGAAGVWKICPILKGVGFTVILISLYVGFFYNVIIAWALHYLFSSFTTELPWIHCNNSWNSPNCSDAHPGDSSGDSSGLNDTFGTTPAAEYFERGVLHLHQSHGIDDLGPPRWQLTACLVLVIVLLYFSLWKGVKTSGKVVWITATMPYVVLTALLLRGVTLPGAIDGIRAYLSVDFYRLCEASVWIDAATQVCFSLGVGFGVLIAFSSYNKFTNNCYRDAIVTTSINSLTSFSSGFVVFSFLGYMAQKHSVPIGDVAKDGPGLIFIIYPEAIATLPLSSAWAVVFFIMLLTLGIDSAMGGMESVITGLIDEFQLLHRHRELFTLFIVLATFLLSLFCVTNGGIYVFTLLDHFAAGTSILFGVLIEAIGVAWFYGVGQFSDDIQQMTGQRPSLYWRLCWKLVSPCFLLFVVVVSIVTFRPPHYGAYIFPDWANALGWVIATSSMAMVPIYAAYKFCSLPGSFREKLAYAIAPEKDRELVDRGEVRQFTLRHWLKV
Cysteinyl leukotriene receptor 2 (Homo sapiens), sequence (Q9NS75 whole entry): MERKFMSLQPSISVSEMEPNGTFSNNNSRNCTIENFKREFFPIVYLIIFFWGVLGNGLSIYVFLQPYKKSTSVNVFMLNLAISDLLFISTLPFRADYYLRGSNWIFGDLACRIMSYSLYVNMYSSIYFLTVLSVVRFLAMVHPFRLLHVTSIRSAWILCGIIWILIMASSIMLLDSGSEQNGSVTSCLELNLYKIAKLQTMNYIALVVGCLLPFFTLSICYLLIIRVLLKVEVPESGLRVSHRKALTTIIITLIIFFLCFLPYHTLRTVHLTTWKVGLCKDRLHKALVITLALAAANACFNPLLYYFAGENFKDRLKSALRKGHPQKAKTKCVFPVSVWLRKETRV
Acetylcholinesterase (Homo sapiens), sequence (P22303 whole entry): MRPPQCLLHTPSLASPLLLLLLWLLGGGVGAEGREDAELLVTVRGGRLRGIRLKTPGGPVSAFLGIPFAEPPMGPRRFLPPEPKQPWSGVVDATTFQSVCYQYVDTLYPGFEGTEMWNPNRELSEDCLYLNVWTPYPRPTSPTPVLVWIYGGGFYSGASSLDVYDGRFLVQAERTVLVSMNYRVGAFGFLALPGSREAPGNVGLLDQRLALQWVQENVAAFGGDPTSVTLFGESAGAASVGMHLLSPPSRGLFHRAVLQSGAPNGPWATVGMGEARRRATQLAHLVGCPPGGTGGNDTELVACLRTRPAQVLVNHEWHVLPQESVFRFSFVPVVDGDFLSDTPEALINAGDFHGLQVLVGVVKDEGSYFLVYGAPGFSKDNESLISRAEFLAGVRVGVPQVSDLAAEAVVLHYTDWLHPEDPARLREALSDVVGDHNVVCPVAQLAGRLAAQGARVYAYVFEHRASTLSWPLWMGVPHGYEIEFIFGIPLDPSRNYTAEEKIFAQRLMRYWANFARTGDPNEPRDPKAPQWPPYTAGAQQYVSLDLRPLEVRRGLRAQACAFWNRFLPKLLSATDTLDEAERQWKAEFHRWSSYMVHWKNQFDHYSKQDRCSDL
Prostacyclin receptor (Homo sapiens), sequence (P43119 whole entry): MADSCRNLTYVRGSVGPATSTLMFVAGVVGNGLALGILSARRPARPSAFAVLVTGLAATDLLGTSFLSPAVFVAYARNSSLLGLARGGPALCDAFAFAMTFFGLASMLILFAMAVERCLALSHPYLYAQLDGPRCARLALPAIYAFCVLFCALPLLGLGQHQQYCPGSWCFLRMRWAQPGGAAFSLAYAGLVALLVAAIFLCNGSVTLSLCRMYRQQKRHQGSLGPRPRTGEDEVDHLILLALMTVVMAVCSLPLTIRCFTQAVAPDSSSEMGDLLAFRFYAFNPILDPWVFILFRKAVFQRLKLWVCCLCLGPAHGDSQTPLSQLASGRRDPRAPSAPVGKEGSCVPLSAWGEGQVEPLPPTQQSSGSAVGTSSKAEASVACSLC

Compound: C[C@H](C(=O)O)[C@H](c1cccc(O[C@@H]2CCc3cc(-c4cc(OS(=O)(=O)O)ccc4F)ccc32)c1)C1CC1
- Drug metabolism [1]: Metabolite_Detected

Compound: COc1ccc(F)c(-c2ccc3c(c2)CC[C@H]3Oc2cccc([C@H](C3CC3)[C@H](C)C(=O)O)c2)c1
- half-life [2]: 1.8 h
- bioavailability [3]: 81%
- concentration [4]: 1240 nM
- inhibition [5]: 80%
- Cp(f) [6]: 0.76 nM
- concentration [7]: 17300 nM
- Drug metabolism [8]: Metabolite_Detected
- Cp(f) [9]: 0.45 nM
- Activity [10]: Toxic
- EC50 [11]: 388 nM
- fEC50 [11]: 0.04 nM
- inhibition [12]: 68%
- Fu [13]: 0.01%
- Cp(f) [14]: 0.16 nM
- Activity (Rattus norvegicus [15]): 82%
- concentration [16]: 207 nM
- concentration [17]: 1900 nM
- Fu [18]: 0.01%
- Drug metabolism [19]: Metabolite_Detected
- AUC/dose [20]: 21.5 µM·h
- Activity (Rattus norvegicus [21]): 19%
- inhibition [22]: 89%
- EC50 [23]: 4.5 nM
- Activity [24]: Toxic
- concentration [25]: 689 nM
- Activity [26]: Non-Toxic
- concentration [27]: 4470 nM
- solubility [28]: 153 µM (≈ 70.5 µg/mL)
- Ratio [29]: 42
- Vd [30]: 0.33 L/kg
- Activity (Rattus norvegicus [31]): 105%
- inhibition [32]: 70%
- Ratio [33]: 19
- inhibition [34]: 55%
- inhibition [35]: 71%
- inhibition [36]: 87%
- Activity (Mus musculus): Active
- Cmax [37]: 2900 nM
- Activity (Rattus norvegicus [38]): 114%
- Activity (Rattus norvegicus [39]): 40%
- Cp(f) [40]: 0.02 nM
- concentration at 3 h [41]: 1600 nM
- Cp(f) [42]: 0.069 nM
- Activity [43]: 205%
- Cp(f) [44]: 1.73 nM
- concentration [45]: 7610 nM
- inhibition [46]: 81%
- inhibition [47]: 52%
- clearance [48]: 2.8 mL/min/kg
- inhibition [49]: 69%
- inhibition in vivo at 3 mg/kg (Rattus norvegicus [50]): 71%
- Activity [51]: 323%

Compound: C[C@H](C(=O)OC1O[C@H](C(=O)O)[C@@H](O)[C@H](O)[C@H]1O)[C@H](c1cccc(O[C@@H]2CCc3cc(-c4cc(O)ccc4F)ccc32)c1)C1CC1 (stereo not given in full)
- Drug metabolism [52]: Metabolite_Detected
- Stability [53]: Stable
